Key:
Format in all cases: in vivo
Tetranychus urticae = Tetranychus urticae spray test, OP-resistant; details: foliar, 144 h, bean leaf discs, after 6 days, read-out: efficacy
Description: Tetranychus urticae—Spray Test, OP-Resistant
To produce a suitable preparation of active compound, 1 part by weight of active compound is dissolved using the specified parts by weight of solvent and made up with water containing an emulsifier concentration of 1000 ppm until the desired concentration is attained. To produce further test concentrations, the formulation is diluted with emulsifier-containing water.
Discs of bean leaves (Phaseolus vulgaris) infested with all stages of the greenhouse red spider mite (Tetranychus urticae) are sprayed with an active compound preparation of the desired concentration.
After 6 days, the efficacy in % is determined. 100% means that all the spider mites have been killed; 0% means that no spider mites have been killed.

Myzus persicae [1] = assay: Myzus persicae oral test; details: 120 h, 20 ppm, oral uptake, after 5 days, read-out: efficacy
Method in brief: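 Compound dissolved in acetone, diluted in water, then mixed 50:150 μl with IPL41 insect medium (33%+15% sugar). Mixed-population green peach aphids feed through a parafilm seal on the solution; mortality scored as % efficacy after 5 days (100% = all killed).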

Myzus persicae [2] = assay: Myzus persicae spray test (Chinese cabbage leaf discs); details: foliar, 120 h, after 5-6 days, read-out: efficacy
Method in brief: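 Chinese cabbage leaf discs infested with all stages of green peach aphid were sprayed with compound formulated in acetone/DMF and emulsifier-containing water. Efficacy in % was scored after 5-6 days, with 100% meaning all aphids killed and 0% none killed.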

Meloidogyne incognita = Meloidogyne incognita test; details: 336 h, lettuce, after 14 days, read-out: nematicidal efficacy (formation of galls)
Method in brief: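 Active compound in acetone, diluted with water, added to sand-filled vessels with M. incognita eggs/larvae and lettuce seeds. After 14 days, efficacy scored by root gall formation: 100% = no galls, 0% = galls equal to untreated control.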

Lucilia cuprina = Lucilia cuprina test; details: 48 h, L1 larvae, after 2 days, read-out: efficacy (kill in %)
Description: Lucilia cuprina Test Solvent: dimethyl sulphoxide To produce a suitable preparation of active compound, 10 mg of active compound are mixed with 0.5 ml of dimethyl sulphoxide, and the concentrate is diluted with water to the desired concentration. About 20 L1 larvae of the Australian sheep blowfly (Lucilia cuprina) are transferred into a test vessel containing minced horsemeat and the active compound preparation of the desired concentration. After 2 days, the kill in % is determined. 100% means that all the larvae have been killed; 0% means that no larvae have been killed.

Phaedon cochleariae = Phaedon cochleariae spray test; details: foliar, 168 h, Chinese cabbage leaf discs, larvae, after 7 days, read-out: efficacy
Method in brief: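 Compound dissolved in solvent and diluted with water containing 1000 ppm emulsifier to test concentrations. Efficacy read after 7 days as % beetle larvae killed (100% all killed, 0% none).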

Compound	pest or weed control at 500 g/ha (Tetranychus urticae)	pest or weed control at 20 ppm (Myzus persicae [1])	pest or weed control at 500 g/ha (Myzus persicae [2])	pest or weed control at 20 ppm (Meloidogyne incognita)	pest or weed control at 100 ppm (Lucilia cuprina)	pest or weed control at 500 g/ha (Phaedon cochleariae)	pest or weed control at 100 g/ha (Myzus persicae [2]; 100 g/ha)
Cc1ccsc1S(=O)(=O)NC(=O)c1cn(C)c(-c2ncccc2F)n1 [Example 573]	90%	100%	90%	–	–	–	–
Cc1cc(C(=O)NS(=O)(=O)c2ccccc2Cl)nn1-c1ccccc1C(F)(F)F [Example 291]	90%	–	–	90%	–	–	–
Cn1cc(C(=O)NS(=O)(=O)c2c(Cl)cccc2Cl)nc1-c1c(Cl)cccc1Cl [Example 102]	–	100%	100%	90%	100%	100%	–
Cn1cc(C(=O)NS(=O)(=O)c2cccc(Cl)c2F)nc1-c1c(F)cccc1F [Example 315]	90%	100%	100%	100%	–	–	–
Cc1cc(C(=O)NS(=O)(=O)c2cc(Cl)ccc2Br)nn1-c1ccccc1C(F)(F)F [Example 293]	100%	–	–	90%	–	–	–
Cn1cc(C(=O)NS(=O)(=O)c2cc(Cl)ccc2Cl)nc1-c1ccccc1Cl [Example 56]	–	100%	100%	90%	100%	100%	–
Cn1cc(C(=O)NS(=O)(=O)c2ccc(Cl)cc2)nc1-c1c(F)cccc1F [Example 46]	90%	–	90%	100%	–	–	–
CCS(=O)(=O)NC(=O)c1cn(C)c(-c2c(Cl)cccc2Cl)n1 [Example 82]	90%	–	90%	90%	–	–	–
O=C(NS(=O)(=O)CC(F)(F)F)c1cn(-c2ccccc2)c(-c2ccccc2Cl)n1 [Example 74]	100%	–	–	–	–	–	–
CCc1cccc(C)c1S(=O)(=O)NC(=O)c1cn(C)c(-c2c(F)cccc2F)n1 [Example 336]	–	100%	90%	100%	95%	100%	–
COc1ccc(C)c(S(=O)(=O)NC(=O)c2cn(C)c(-c3c(F)cccc3F)n2)c1 [Example 401]	–	100%	100%	90%	100%	100%	–
COc1ccc(Cl)c(S(=O)(=O)NC(=O)c2nc(-c3c(F)cccc3F)nn2C)c1 [Example 406]	90%	–	–	90%	–	–	–
CCn1cc(C(=O)NS(=O)(=O)CC)nc1-c1ccccc1Cl [Example 78]	90%	–	90%	90%	–	–	–
Cc1cccc(C)c1S(=O)(=O)NC(=O)c1cn(C)c(-c2cccc(Cl)c2Cl)n1 [Example 558]	–	100%	90%	90%	100%	100%	–
Cn1cc(C(=O)NS(=O)(=O)c2ccccc2I)nc1-c1c(F)cccc1F [Example 120]	–	100%	100%	90%	100%	100%	–
Cc1cccc(Cl)c1S(=O)(=O)NC(=O)c1cn(C)c(-c2c(F)cccc2F)n1 [Example 364]	–	100%	100%	100%	100%	100%	–
Cn1nc(-c2c(F)cccc2F)nc1C(=O)NS(=O)(=O)c1ccccc1Cl [Example 407]	90%	–	–	90%	–	–	–
CCS(=O)(=O)NC(=O)c1nc(-c2ccccc2Cl)n(C)c1C [Example 70]	90%	100%	90%	–	–	–	–

Compound	pest or weed control at 500 g/ha (Tetranychus urticae)	pest or weed control at 20 ppm (Myzus persicae [1])	pest or weed control at 500 g/ha (Myzus persicae [2])	pest or weed control at 20 ppm (Meloidogyne incognita)	pest or weed control at 100 ppm (Lucilia cuprina)	pest or weed control at 500 g/ha (Phaedon cochleariae)	pest or weed control at 100 g/ha (Myzus persicae [2]; 100 g/ha)
Cc1ccc(Cl)cc1S(=O)(=O)NC(=O)c1cn(C)c(-c2ccccc2Cl)n1 [Example 37]	–	100%	90%	100%	100%	100%	–
Cn1cc(C(=O)NS(=O)(=O)c2ccccc2Cl)nc1-c1cnccc1Cl [Example 495]	90%	–	–	90%	–	–	–
Cc1ccc(F)cc1S(=O)(=O)NC(=O)c1cn(C)c(-c2c(F)cccc2F)n1 [Example 397]	–	100%	100%	90%	100%	100%	–
Cc1ccc(S(=O)(=O)NC(=O)c2cn(C)c(-c3c(F)cccc3F)n2)s1 [Example 351]	90%	–	–	90%	–	–	90%
Cc1ccc(F)cc1S(=O)(=O)NC(=O)c1cn(C)c(-c2ncccc2Cl)n1 [Example 584]	–	100%	100%	90%	100%	100%	–
COc1ccc(Cl)c(S(=O)(=O)NC(=O)c2nc(-c3ccccc3Cl)n(C)c2C)c1 [Example 104]	90%	100%	–	90%	–	100%	–
Cc1ccsc1S(=O)(=O)NC(=O)c1cn(C)c(-c2ccccc2Cl)n1 [Example 212]	90%	100%	100%	90%	–	–	–
Cn1cc(C(=O)NS(=O)(=O)c2cccc(Cl)c2Cl)nc1-c1c(F)cccc1F [Example 173]	90%	100%	100%	100%	–	–	–
CCc1cc(Br)ccc1S(=O)(=O)NC(=O)c1cn(C)c(-c2c(F)cccc2F)n1 [Example 341]	–	100%	90%	100%	100%	100%	–
Cn1cc(C(=O)NS(=O)(=O)c2ccccc2Br)nc1-c1ccccc1Cl [Example 36]	–	100%	100%	100%	100%	100%	–
COc1ccc(Br)cc1S(=O)(=O)NC(=O)c1cn(C)c(-c2c(F)cccc2F)n1 [Example 18]	–	100%	100%	90%	100%	100%	–
Cc1cccc(C)c1S(=O)(=O)NC(=O)c1cn(C)c(-c2ccccc2Cl)n1 [Example 218]	–	100%	100%	90%	100%	100%	–
Cc1ccccc1S(=O)(=O)NC(=O)c1cn(C)c(-c2cccc(Cl)c2Cl)n1 [Example 519]	–	100%	90%	100%	100%	100%	–
Cn1cc(C(=O)NS(=O)(=O)c2c(Cl)cccc2Cl)nc1-c1c(F)cccc1Cl [Example 108]	–	100%	100%	90%	95%	100%	–
Cc1ccccc1S(=O)(=O)NC(=O)c1cn(C)c(-c2c(F)cccc2F)n1 [Example 27]	–	100%	100%	90%	100%	100%	–
Cc1ccccc1-c1nc(C(=O)NS(=O)(=O)CC(F)(F)F)cn1C [Example 87]	90%	–	100%	–	–	–	–
COc1cc(S(=O)(=O)NC(=O)c2cn(C)c(-c3c(F)cccc3F)n2)c(C)cc1Br [Example 285]	–	100%	90%	100%	100%	100%	–

— patent publication US20200288710A1, “SUBSTITUTED SULPHONAMIDES FOR CONTROLLING ANIMAL PESTS” (BAYER CROPSCIENCE AKTIENGESELLSCHAFT, priority 2016, published 2020)
